The text below walks through data of patent publication US20190314436A1, “PHARMACEUTICAL COMPOSITION FOR PREVENTION OR TREATMENT OF LIVER CANCER AND HEALTH FUNCTIONAL FOOD” (KOREA BIO MEDICAL SCIENCE INSTITUTE CO., LTD, priority 2016, published 2019).

Assay [1] concerns Huh7 cells. In words: MTT assay, liver cancer growth inhibition / cell death. Type of assay: cell-based. The note with it: 48 hours. The method, then:
Hepatoma cell proliferation inhibitory efficacies of the Ulmi cortex extract (WSY-0), Nardostachys jatamansi extract (WSY-1), Lophatheri Herba extract (WSY-3) and Torilis japonica extract (WSY-37) in target cells or mice treated with the same were validated by MTT assay and effective concentrations thereof were determined.
In vitro liver cancer growth inhibitory abilities of four (4) natural products (WSY-0, WSY-1, WSY-3, and WSY-37) were verified by the MTT assay.
With respect to the 4 types of natural products, total 8 types of extracts were prepared through hydrothermal extraction and ethanol extraction, respectively. These extracts were identified to have in vitro liver cancer growth inhibitory ability in 5 types of liver cancer cell lines (Huh7, HepG2, Hep3B, PLC/PRF5, and SK-hep1).
Further, in treatment using each of three ethanol extracts in an amount of 200 μg/mL except WSY-37, the cell growth inhibitory ability was identified in 4 types of liver cancer cell lines except Hep G2 cells.
When treating Huh7 cells with sorafenib for 48 hours, it was identified that about 60% cell death was induced with 2 μM of sorafenib and about 80% cell death was induced with 4 μM of sorefenib, respectively (see FIG. 1).
For orientation: Tetrazolium assays rely on reduction of a dye to a coloured formazan, in cell work by metabolically active cells.

For assay [2], the system named is Hepa1-6 hepatocellular carcinoma. As to the kind of experiment: Orthotopic HCC model, Hepa1-6 via liver portal vein. The class given is in vivo, C57/BL6 mouse. Conditions: WSY-1 100 mpk, sorafenib 30 mpk, oral daily. As to the method: In the present study, based on results of the primary in vivo efficacy validation experiment and preliminary experiment, the following experiment conditions were set up and the secondary validation experiment was implemented.
Administered cell/administration route: 5×10^5 Hepa1-6-GFP cells/liver portal vein
Dose/administration route/dosing frequency: WSY-1 100 mpk, sorafenib 30 mpk/oral administration/daily
5×10^5 Hepa1-6GFP cells were administered to the liver portal vein of each 6-week-old C57/BL6 mouse. 3 days later, the mice were randomly grouped, followed by administration of WSY-1 and sorafenib for 3 weeks.
During 3 weeks administration period, death (mortality) due to tumorigenesis was induced in the following experimental groups. After termination of the administration, survived mice were sacrificed and analyzed for anti-cancer effects.

Assay [3] relates to liver cancer. The note with it: cited from earlier work.
Assay [4] deals with HCCLM3 cells. In words: Cell death in hyper-metastatic HCC cell line. The class given is cell-based. The note with it: HCCLM3, 16 μM, 48 hours. From the text:
By treatment of HCCLM3 cells using WSY-1 or WSY-3 extract in ethanol to identify cell death effects, in vitro anti-cancer effects of the natural extracts on cell lines having different sorafenib sensitivities were investigated.

Assay [5] relates to HCCLM3 hepatocellular carcinoma. In words: Orthotopic HCC model, HCCLM3 via liver portal vein. The class given is in vivo, Balb/c nu/nu mouse. The note with it: 30 mpk oral daily, 8 weeks. From the text:
Establishment of Hepatocellular Carcinoma (HCC) in Small Animal Models
In order to induce HCC in a small animal model, a method of injecting chemicals such as DEN or a method of directly injecting HCC cells into the model is used. Although DEN treatment is convenient in view of experiment, this process entails a disadvantage in that a long period of time (about 50 weeks) is required for generation of tumors (‘tumorigenesis’). Therefore, in order to efficiently verify in vivo anticancer effects of natural extracts for a short period of time, an orthotopic implantation model of directly injecting HCC cells into the liver of a mouse was implemented.
The orthotopic implantation model is a method of inducing formation of cancer in liver tissues by directly injecting HCC cell lines such as Huh7 or HCCLM3 into hepatic portal vein or mesenchyma (liver lobe) of the mouse, and takes about 8 weeks to form tumors, which is considerably shorter than DEN, thus being properly used.
Efficacies of the Ulmi cortex extract (WSY-0), Nardostachys jatamansi extract (WSY-1), Lophatheri Herba extract (WSY-3) or Torilis Japonica extract (WSY-37) on HCC formation and suppression thereof have been validated through liver gross, H & E staining and serum analysis. […]

Each structure is given as a SMILES string.

`CNC(=O)c1cc(Oc2ccc(NC(=O)Nc3ccc(Cl)c(C(F)(F)F)c3)cc2)ccn1` [sorafenib]: the cell death result is “about 60%” in assay [1] (Huh7, 2 μM) and “about 80%” in assay [1] (Huh7, 4 μM). Also, in assay [2] (3 weeks administration), the “death (mortality) due to tumorigenesis” value was 4 out of 13. Also, the “liver weight/body weight vs mice injected with Hepa1-6 cells only” value in assay [2] (3 weeks) was “significantly decreased”. For the same molecule, the “patients with partial response” value in assay [3] (137 patients, Phase 2 clinical trials) is reported as ≤ 5%. For the same molecule, the “extension of life compared to placebo dose group” value in assay [3] (orally administered) is listed as ~3 months. Moreover, in assay [4], the apoptotic effects was ≤ 50%. Besides, the “liver weight/body weight vs mice with HCCLM3 only” value in assay [5] is “decreased”.
